Counter-ions that a name gives are not always drawn.

In data set [1] the test system is healthy human subjects. The experiment in a line: Cardiac effect of oxymetazoline: blood pressure and heart rate (Example 2). The format is in vivo. The text has this: The effect of oxymetazoline on cardiac parameters was examined in four healthy human subjects.
A further data set relates to Healthy volunteers. The experiment in a line: Resting anal pressure by anorectal manometry after intraanal administration (Example 1). The format is in vivo, human. On the procedure: Preparations of phenylephrine hydrochloride and oxymetazoline were prepared. The oxymetazoline was first dissolved in propylene glycol and then added to polyethylene glycol 1500 to obtain a solution in the concentration of 1 mg/1 mL.
The preparations were administered intraanally. The doses are expressed as both a volume of a concentration of the drug solution and also as milligrams of the active ingredient.
Resting anal pressure was determined by anorectal manometry for measuring contractility in the anus and rectum using the ManoScan 360™ catheter (Sierra Scientific Instruments).
Healthy volunteers, men and women of 18 to 55 years old received intraanal dose of 40 mg (40 mL) or 80 mg (80 mL) phenylephrine or a dose of 1 mg oxymetazoline (1 mL; 0.1%). None of the volunteers had symptoms of anal incontinence nor previous anal surgery and presumed to have intact internal and external anal sphincters. Pre-treatment mean resting pressure was 85 mmHg for the phenyephrine 40 mg group, and 81 mmHg for the phenylephrine 80 mg group.
After the application of the aforementioned doses of phenylephrine and oxymetazoline, resting anal pressure was determined at the following time intervals: […], […] The results are summarized in Tables 1 and 2 below and in FIG. 1.

Data set [2] relates to healthy human subjects. The experiment in a line: Change in resting anal pressure at different oxymetazoline doses (Example 2). The format is in vivo.
The nature of data set [3]: Solubility of oxymetazoline. The format is physicochemical. Conditions: aqueous and non aqueous media.
For data set [4], the system named is patient having a reduced anal resting pressure. Particulars: phenylephrine concentrations below 10%, topical; cited from earlier work.
For data set [5] the following is noted: on lowering the pH of formulations, even with PVPs or PEGs; cited from earlier work.
Where [6] appears, read: oxymetazoline 1 mg (1 mL; 0.1%) intraanal, time 0 min.
Setting [7] is: oxymetazoline 1 mg (1 mL; 0.1%) intraanal, time 60 min.
The mark [8] stands for this setting: oxymetazoline 1 mg (1 mL; 0.1%) intraanal, time 180 min.
The mark [9] stands for this setting: oxymetazoline 1 mg (1 mL; 0.1%) intraanal, time 300 min.
Where [10] appears, read: Phenylephrine 40 mg intraanal, time 90 min.
Where [11] appears, read: Phenylephrine 40 mg intraanal, time 180 min.
[12] abbreviates: Phenylephrine 40 mg intraanal, time 240 min.
Where [13] appears, read: Phenylephrine 80 mg intraanal, time 90 min.
[14] abbreviates: Phenylephrine 80 mg intraanal, time 180 min.
Setting [15] is: Phenylephrine 80 mg intraanal, time 240 min.

On to `Cc1cc(C(C)(C)C)c(O)c(C)c1CC1=NCCN1` [Oxymetazoline, 3-(4,5-dihydro-1H-imidazol-2-ylmethyl)-2,4-dimethyl-6-tert-butyl-phenol], for which the “Change in diastolic blood pressure” value in the data set on healthy human subjects [1] (Oxymetazoline dose 0.01%) is on record as 2 mmHg; in the data set on healthy human subjects [1] (Oxymetazoline dose 0.1%), 0 mmHg; with healthy human subjects [1] (Oxymetazoline dose 0.5%) it was 1 mmHg. Also, the figures for the “Change in heart rate” value with healthy human subjects [1] (Oxymetazoline dose 0.01%), with healthy human subjects [1] (Oxymetazoline dose 0.1%) and in the data set with healthy human subjects [1] (Oxymetazoline dose 0.5%) were −3 beats/min, 0 beats/min and 1 beats/min, respectively. For the same compound, the “Change in systolic Blood pressure” value with healthy human subjects [1] (Oxymetazoline dose 0.01%) amounted to 6 mmHg; with healthy human subjects [1] (Oxymetazoline dose 0.1%), 5 mmHg; in the data set on healthy human subjects [1] (Oxymetazoline dose 0.5%) it was 3 mmHg. Moreover, in the data set with healthy human subjects [1] (low doses of about 0.1%), the “Changes in the diastolic blood pressure, systolic blood pressure or in the heart rate” value is listed as “did not induce any changes”. Also, the Cardiovascular side effect entry in the data set with healthy human subjects [1] (low doses of oxymetazoline (0.01%-0.5%)) was “do not induce any cardiovascular side effect”. Moreover, the “Change Relative to T = 0 (resting anal pressure)” value with Healthy volunteers (setting [6]) is given as 0 mmHg; with Healthy volunteers (setting [7]), 18 mmHg; with Healthy volunteers (setting [8]) it was 28 mmHg; in the data set on Healthy volunteers (setting [9]) it was 27 mmHg. Moreover, the Resting anal pressure in the data set with Healthy volunteers (setting [6]) came out at 75 mmHg; in the data set with Healthy volunteers (setting [7]), 93 mmHg; in the data set on Healthy volunteers (setting [8]), 103 mmHg; with Healthy volunteers (setting [9]) it was 102 mmHg. Moreover, the “Increase in the maximum resting pressure relative to the pressure before treatment” value in the data set on Healthy volunteers (oxymetazoline 1 mg intraanal) is on record as “about 30 mmHg”. The “Time for which the increased resting anal pressure was maintained” value in the data set with Healthy volunteers (oxymetazoline 1 mg intraanal, duration of the recording) was “at least 5 hours”. In addition, the “Change in resting anal pressure” value came out at 11 mmHg with healthy human subjects [2] (Oxymetazoline dose 0.01%), 18.5 mmHg in the data set with healthy human subjects [2] (Oxymetazoline dose 0.1%) and 24.75 mmHg in the data set on healthy human subjects [2] (Oxymetazoline dose 0.5%). Also, the “Significance of change in resting anal pressure with respect to baseline” value with healthy human subjects [2] (Oxymetazoline dose 0.1%) and in the data set with healthy human subjects [2] (Oxymetazoline dose 0.5%) was “statistically significant” each time. In addition, the Solubility result in data set [3] is “soluble in aqueous and non aqueous media”.

Take `CNC[C@H](O)c1cccc(O)c1` [Phenylephrine]: the “Maximum increase in anal pressure” value in the data set with Healthy volunteers (40 mg phenylephrine intraanal) was 10 mmHg; with Healthy volunteers (80 mg phenylephrine intraanal), 22.5 mmHg. For the same compound, the “Time to reach the initial (pre-treatment) resting anal pressure” value in the data set on Healthy volunteers (40 mg phenylephrine intraanal) was “less than 5 hours”. Also, the “Time in which increased pressure dropped nearly to the pressure prior to treatment” value in the data set with Healthy volunteers (80 mg phenylephrine intraanal) is ≤ 3 h. For the same compound, the “Time in which resting anal pressure dropped down to the pressure observed prior to treatment” value in the data set on Healthy volunteers (80 mg phenylephrine intraanal) is reported as “less than 5 hours”. In addition, the “Change Relative to T = 0 (resting anal pressure)” value in the data set on Healthy volunteers (Phenylephrine 40 mg intraanal, time 0 min) is 0 mmHg; with Healthy volunteers (setting [10]), 10 mmHg; in the data set with Healthy volunteers (setting [11]) it was 7.5 mmHg; in the data set with Healthy volunteers (setting [12]) it was 0 (±1.75) mmHg; with Healthy volunteers (Phenylephrine 80 mg intraanal, time 0 min), 0 mmHg; in the data set with Healthy volunteers (setting [13]) it was 22.5 mmHg. For the same compound, the “Change Relative to T = 0 (resting anal pressure)” value with Healthy volunteers (setting [14]) was 6.75 mmHg; in the data set with Healthy volunteers (setting [15]) it was 0 (±1.75) mmHg. Moreover, the Resting anal pressure with Healthy volunteers (Phenylephrine 40 mg intraanal, time 0 min (pre-treatment)) is on record as 85 mmHg; in the data set on Healthy volunteers (setting [10]), 95 mmHg; in the data set on Healthy volunteers (setting [11]), 92.5 mmHg; in the data set with Healthy volunteers (setting [12]) it was 83.25 mmHg; with Healthy volunteers (Phenylephrine 80 mg intraanal, time 0 min (pre-treatment)) it was 81 mmHg; in the data set with Healthy volunteers (setting [13]), 103.5 mmHg. Moreover, the Resting anal pressure with Healthy volunteers (setting [14]) is given as 87.75 mmHg; in the data set with Healthy volunteers (setting [15]) it was 80.25 mmHg. Further, the “Increase in the maximum resting pressure” value in data set [4] is given as “no significant increase”.

Turning to `Cc1cc(C(C)(C)C)c(O)c(C)c1CC1=NCCN1` [oxymetazoline HCl, 6-tert-butyl-3-(2-imidazolin-2-ylmethyl)-2,4-dimentylphenol hydrochloride], the Photodegradation level result in data set [5] was “significantly reduced”.

Source of the values: patent US9849114B2, “Oxymetazoline for the treatment of ano-rectal disorders” (RDD Pharma Ltd., priority 2011, dated 2017).
